What was measured:
[1] = test system: M. tuberculosis isolates; type: cell-based, Mycobacterium tuberculosis
[2] = human, in vivo
[3] = test system: M. tuberculosis isolates; type: cell-based, Mycobacterium tuberculosis; remark: listed apart in the source
[4] = in vivo; cited from earlier work

| SMILES | Phenotypic DST [1] | adverse effect for which the drug was stopped [2] | also measured |
| --- | --- | --- | --- |
| NCC[C@H](O)C(=O)N[C@@H]1C[C@H](N)[C@@H](O[C@H]2O[C@H](CN)[C@@H](O)[C@H](O)[C@H]2O)[C@H](O)[C@H]1O[C@H]1O[C@H](CO)[C@@H](O)[C@H](N)[C@H]1O [Amikacin] | S | – | Phenotypic susceptibility [1]: phenotypically susceptible; Routine phenotypic DST [1]: susceptible |
| NNC(=O)c1ccncc1 [Isoniazid] | – | vision problems | – |
| CC1COc2c(N3CCN(C)CC3)c(F)cc3c(=O)c(C(=O)O)cn1c23 (stereo not drawn) [Ofloxacin] | S and R | – | – |
| NC(=O)c1cnccn1 [Pyrazinamide] | – | persistent arthralgias and changes in vision | – |
| COc1nc2ccc(Br)cc2cc1[C@@H](c1ccccc1)[C@@](O)(CCN(C)C)c1cccc2ccccc12 [bedaquiline] | – | – | acquired resistance to bedaquiline [3]: 39%; half-life [4]: 5.5 months |
| CC[C@@H](CO)NCCN[C@@H](CC)CO [ethambutol] | – | persistent arthralgias and changes in vision | – |

Reference: patent US12522877B2, “Early detection of drug-resistant mycobacterium tuberculosis” (The Translational Genomics Research Institute, priority 2020, dated 2026)
